Experimental data published in patent US11850237B2, “Compounds and methods for treating influenza” (priority 2009, dated 2023).
In brackets after ≈: the same amount, converted by molar mass. Read-outs that look alike come from different tables or passages of the source.

Columns and labels:
MDCK cells = experiment: Toxicity / cell viability by MTT in uninfected MDCK cells; assay type: cell-based, canine; settings: MDCK cells, MTT
Procedure: (§1) Cell culture, treatment and transfection-Madin-Darby canine kidney (MDCK) cells, and human A549 alveolar type II-like epithelial, Jurkat Tlymphoblastoid and U397 monocytic leukemia cells were grown at 37° C. in a 5% CO2 atmosphere in RPMI 1640 (Invitrogen), supplemented with 10% fetal calf serum (FCS), 2 mM glutamine and antibiotics. Test compounds were added immediately after 1-hour adsorption period, and kept in the culture medium for the entire time of the experiment, unless differently specified. […] Cell viability was determined by the 3-(4,5-dimethylthiazol-2-yl)-2,5-diphenyltetrazolium bromide (MTT) to MTT formazan conversion assay (Sigma-Aldrich) as described previously. Microscopical examination of mock-infected or virus-infected cells was performed using a Leica DM-IL microscope and images were captured on a Leica DC 300 camera using Leica Image-Manager500 software.

H1N1 A/PR/8/34 (PR8) = experiment: microbe, parasite or virus in culture; assay type: cell-based, influenza A virus; settings: for EC50 / EC90: Influenza A virus; for EC90: read-out: Virus Yield EC90; for antiviral activity against PR8, overall rating: PR8 influenza A virus, Table 1
[1] = test system: H1N1 A/PR/8/34 (PR8) virus; experiment: microbe, parasite or virus in culture; assay type: cell-based, influenza A virus; settings: for PR8 Yield: Nitazoxanide 0 μg/ml
[2] = Toxicity / cell viability by MTT in uninfected MDCK cells; assay type: cell-based, canine; settings: dog, uninfected MDCK cells; uninfected cells
Procedure: as §1

[3] = test system: H1N1 A/PR/8/34 (PR8) virus; experiment: microbe, parasite or virus in culture; assay type: cell-based, influenza A virus; settings: oseltamivir alone at test concentrations up to 1
[4] = biological target: viral hemagglutinin (HA0) (Influenza A virus, UniProt P03452); assay type: cell-based
[5] = PR8, MDCK cells, read-out: Virus Yield EC50
[6] = MDCK, 24 h, read-out: EC50, inhibition of virus replication

Sequence of viral hemagglutinin (HA0) (P03452 18-565 limits assumed): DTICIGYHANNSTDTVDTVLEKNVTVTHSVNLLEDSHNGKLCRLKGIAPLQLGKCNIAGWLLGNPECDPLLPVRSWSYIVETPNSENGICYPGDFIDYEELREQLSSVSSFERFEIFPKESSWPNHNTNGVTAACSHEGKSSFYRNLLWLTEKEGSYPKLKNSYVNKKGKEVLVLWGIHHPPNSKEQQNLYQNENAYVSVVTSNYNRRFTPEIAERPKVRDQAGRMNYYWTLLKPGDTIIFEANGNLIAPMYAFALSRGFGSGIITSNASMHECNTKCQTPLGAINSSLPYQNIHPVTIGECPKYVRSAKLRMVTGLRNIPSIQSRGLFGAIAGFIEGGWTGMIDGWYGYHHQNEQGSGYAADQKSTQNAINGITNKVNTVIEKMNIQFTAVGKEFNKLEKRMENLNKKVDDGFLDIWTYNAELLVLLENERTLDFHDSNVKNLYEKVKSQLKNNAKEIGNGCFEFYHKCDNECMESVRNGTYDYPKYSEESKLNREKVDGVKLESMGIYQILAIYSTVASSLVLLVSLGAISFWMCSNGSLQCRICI

O=C(Nc1ncc([N+](=O)[O-])s1)c1ccccc1[O-].[Na+] [Compound 3, tizoxanide sodium salt]
Toxicity LD50 (MTT) (MDCK cells): >50 µg/mL | EC50 (H1N1 A/PR/8/34 (PR8); [5]): 0.4 µg/mL | EC90 (H1N1 A/PR/8/34 (PR8); PR8, MDCK cells): 2.5 µg/mL | antiviral activity against PR8, overall rating (H1N1 A/PR/8/34 (PR8)): potent and selective

CC(=O)N[C@H]1[C@H]([C@H](O)[C@H](O)CO)OC(C(=O)O)=C[C@@H]1N=C(N)N [Zanamivir]
EC50 ([1]; Influenza A virus, zanamivir alone, PR8, MDCK cells, read-out: EC50): 1000 nM | PR8 Yield ([1]; Zanamivir 0.01 μM): 48 HAU/ml | PR8 Yield ([1]; Zanamivir 0.1 μM): 48 HAU/ml | PR8 Yield ([1]; Zanamivir 1 μM): 24 HAU/ml | effect on viral replication ([1]; zanamivir alone at 0.1 μM): had no effect | reduction (inhibition) of virus yield ([1]; zanamivir alone at the highest test concentration of 1): 50%

CC(=O)Oc1cccc(C(=O)Nc2nc(S(C)(=O)=O)cs2)c1 [Compound 31]
Toxicity LD50 (MTT) (MDCK cells): >50 µg/mL | EC50 (H1N1 A/PR/8/34 (PR8); [5]): > 50 µg/mL | EC90 (H1N1 A/PR/8/34 (PR8); PR8, MDCK cells): > 50 µg/mL

CC(C)COC(=O)Oc1ccccc1C(=O)Nc1ncc([N+](=O)[O-])s1 [Compound 14]
Toxicity LD50 (MTT) (MDCK cells): 20 µg/mL | EC50 (H1N1 A/PR/8/34 (PR8); [5]): 1 µg/mL (≈ 2.74 µM) | EC90 (H1N1 A/PR/8/34 (PR8); PR8, MDCK cells): 8 µg/mL (≈ 21.9 µM)

CC(=O)Oc1ccccc1C(=O)Nc1nc(S(C)(=O)=O)cs1 [Compound 27]
Toxicity LD50 (MTT) (MDCK cells): >50 µg/mL | CC50 [2]: > 50 µg/mL | EC50 (H1N1 A/PR/8/34 (PR8); [6]): 0.1 µg/mL (≈ 0.294 µM) | EC50 (H1N1 A/PR/8/34 (PR8); [5]): 0.1 µg/mL (≈ 0.294 µM) | EC90 (H1N1 A/PR/8/34 (PR8); PR8, MDCK cells): 0.8 µg/mL (≈ 2.35 µM) | potency relative to NTZ and TIZ (H1N1 A/PR/8/34 (PR8); PR8, MDCK cells): 10 times | antiviral activity against PR8, overall rating (H1N1 A/PR/8/34 (PR8)): potent and selective

CS(=O)(=O)c1cnc(NC(=O)c2ccc(O)cc2)s1 [Compound 64]
Toxicity LD50 (MTT) (MDCK cells): >50 µg/mL | EC50 (H1N1 A/PR/8/34 (PR8); [5]): > 50 µg/mL | EC90 (H1N1 A/PR/8/34 (PR8); PR8, MDCK cells): > 50 µg/mL

CS(=O)(=O)c1cnc(NC(=O)c2ccccc2O)s1 [Compound 53]
Toxicity LD50 (MTT) (MDCK cells): >50 µg/mL | EC50 (H1N1 A/PR/8/34 (PR8); [5]): 10 µg/mL (≈ 33.5 µM) | EC90 (H1N1 A/PR/8/34 (PR8); PR8, MDCK cells): > 50 µg/mL

CCOC(=O)Oc1ccccc1C(=O)Nc1ncc([N+](=O)[O-])s1 [Compound 15]
Toxicity LD50 (MTT) (MDCK cells): 30 µg/mL | EC50 (H1N1 A/PR/8/34 (PR8); [5]): 1 µg/mL (≈ 2.96 µM) | EC90 (H1N1 A/PR/8/34 (PR8); PR8, MDCK cells): 7 µg/mL (≈ 20.8 µM)

O=C(Oc1ccccc1C(=O)Nc1ncc([N+](=O)[O-])s1)c1ccccc1 [Compound 17]
Toxicity LD50 (MTT) (MDCK cells): >50 µg/mL | EC50 (H1N1 A/PR/8/34 (PR8); [5]): 3 µg/mL (≈ 8.12 µM) | EC90 (H1N1 A/PR/8/34 (PR8); PR8, MDCK cells): 9 µg/mL (≈ 24.4 µM)

CCOC(=O)C1=C[C@@H](OC(CC)CC)[C@H](NC(C)=O)[C@@H](N)C1 [oseltamivir, reference compound]
reduction (inhibition) of virus yield [3]: did not observe reduction

CS(=O)(=O)c1csc(NC(=O)c2ccccc2O)n1 [Compound 28]
Toxicity LD50 (MTT) (MDCK cells): >50 µg/mL | CC50 [2]: > 50 µg/mL | EC50 (H1N1 A/PR/8/34 (PR8); [6]): 0.1 µg/mL (≈ 0.335 µM) | EC50 (H1N1 A/PR/8/34 (PR8); [5]): 0.1 µg/mL (≈ 0.335 µM) | EC90 (H1N1 A/PR/8/34 (PR8); PR8, MDCK cells): 0.7 µg/mL (≈ 2.35 µM) | potency relative to NTZ and TIZ (H1N1 A/PR/8/34 (PR8); PR8, MDCK cells): 10 times | antiviral activity against PR8, overall rating (H1N1 A/PR/8/34 (PR8)): potent and selective

CC(=O)Oc1ccccc1C(=O)Nc1nc([S+](C)[O-])cs1 (centres unmarked) [Compound 29]
Toxicity LD50 (MTT) (MDCK cells): >50 µg/mL | EC50 (H1N1 A/PR/8/34 (PR8); [5]): 10 µg/mL (≈ 30.8 µM) | EC90 (H1N1 A/PR/8/34 (PR8); PR8, MDCK cells): > 50 µg/mL

CCC(=O)Oc1ccccc1C(=O)Nc1ncc([N+](=O)[O-])s1 [Compound 16]
Toxicity LD50 (MTT) (MDCK cells): 20 µg/mL | EC50 (H1N1 A/PR/8/34 (PR8); [5]): 1 µg/mL (≈ 3.11 µM) | EC90 (H1N1 A/PR/8/34 (PR8); PR8, MDCK cells): 8 µg/mL (≈ 24.9 µM)

O=C(Nc1nc(S(=O)(=O)C2CCCCC2)cs1)c1ccccc1O [Compound 39]
Toxicity LD50 (MTT) (MDCK cells): >50 µg/mL | EC50 (H1N1 A/PR/8/34 (PR8); [5]): 10 µg/mL (≈ 27.3 µM) | EC90 (H1N1 A/PR/8/34 (PR8); PR8, MDCK cells): 30 µg/mL (≈ 81.9 µM)

CC(=O)Oc1ccc(C(=O)Nc2nc(S(C)(=O)=O)cs2)cc1 [Compound 34]
Toxicity LD50 (MTT) (MDCK cells): >50 µg/mL | EC50 (H1N1 A/PR/8/34 (PR8); [5]): > 50 µg/mL | EC90 (H1N1 A/PR/8/34 (PR8); PR8, MDCK cells): > 50 µg/mL

CS(=O)(=O)c1csc(NC(=O)c2cccc(O)c2)n1 [Compound 32]
Toxicity LD50 (MTT) (MDCK cells): >50 µg/mL | EC50 (H1N1 A/PR/8/34 (PR8); [5]): > 50 µg/mL | EC90 (H1N1 A/PR/8/34 (PR8); PR8, MDCK cells): > 50 µg/mL

C[S+]([O-])c1csc(NC(=O)c2ccccc2O)n1 (centres unmarked) [Compound 30]
Toxicity LD50 (MTT) (MDCK cells): >50 µg/mL | EC50 (H1N1 A/PR/8/34 (PR8); [5]): 10 µg/mL (≈ 35.4 µM) | EC90 (H1N1 A/PR/8/34 (PR8); PR8, MDCK cells): > 50 µg/mL

CC(=O)Oc1ccccc1C(=O)Nc1ncc(S(C)(=O)=O)s1 [Compound 52]
Toxicity LD50 (MTT) (MDCK cells): >50 µg/mL | EC50 (H1N1 A/PR/8/34 (PR8); [5]): 30 µg/mL (≈ 88.1 µM) | EC90 (H1N1 A/PR/8/34 (PR8); PR8, MDCK cells): > 50 µg/mL

CSc1csc(NC(=O)c2ccc(OC(C)=O)cc2)n1 [Compound 33]
Toxicity LD50 (MTT) (MDCK cells): >50 µg/mL | EC50 (H1N1 A/PR/8/34 (PR8); [5]): > 50 µg/mL | EC90 (H1N1 A/PR/8/34 (PR8); PR8, MDCK cells): > 50 µg/mL

CS(=O)(=O)c1cnc(NC(=O)c2cccc(O)c2)s1 [Compound 66]
Toxicity LD50 (MTT) (MDCK cells): >50 µg/mL | EC50 (H1N1 A/PR/8/34 (PR8); [5]): > 50 µg/mL | EC90 (H1N1 A/PR/8/34 (PR8); PR8, MDCK cells): > 50 µg/mL

CC(=O)Oc1ccc(C(=O)Nc2ncc(S(C)(=O)=O)s2)cc1 [Compound 63]
Toxicity LD50 (MTT) (MDCK cells): >50 µg/mL | EC50 (H1N1 A/PR/8/34 (PR8); [5]): 10 µg/mL (≈ 29.4 µM) | EC90 (H1N1 A/PR/8/34 (PR8); PR8, MDCK cells): > 50 µg/mL

CCCCS(=O)(=O)c1cnc(NC(=O)c2ccccc2OC(C)=O)s1 [Compound 59]
Toxicity LD50 (MTT) (MDCK cells): >50 µg/mL | EC50 (H1N1 A/PR/8/34 (PR8); [5]): 5 µg/mL (≈ 13.1 µM) | EC90 (H1N1 A/PR/8/34 (PR8); PR8, MDCK cells): 30 µg/mL (≈ 78.4 µM)

CS(=O)(=O)c1csc(NC(=O)c2ccc(O)cc2)n1 [Compound 35]
Toxicity LD50 (MTT) (MDCK cells): >50 µg/mL | EC50 (H1N1 A/PR/8/34 (PR8); [5]): > 50 µg/mL | EC90 (H1N1 A/PR/8/34 (PR8); PR8, MDCK cells): > 50 µg/mL

tunicamycin [TM, reference compound]
HA0 glycosylation (glucosamine, mannose incorporation) [4]: completely prevented HA0 glycosylation | intracellular HA0 levels / accumulation [4]: caused a decrease in HA0 accumulation

CC(C)S(=O)(=O)c1csc(NC(=O)c2ccccc2O)n1 [Compound 37]
Toxicity LD50 (MTT) (MDCK cells): >50 µg/mL | EC50 (H1N1 A/PR/8/34 (PR8); [5]): 0.6 µg/mL (≈ 1.84 µM) | EC90 (H1N1 A/PR/8/34 (PR8); PR8, MDCK cells): 15 µg/mL (≈ 46 µM) | antiviral activity against PR8, overall rating (H1N1 A/PR/8/34 (PR8)): potent and selective

CC(=O)Oc1cccc(C(=O)Nc2ncc(S(C)(=O)=O)s2)c1 [Compound 65]
Toxicity LD50 (MTT) (MDCK cells): >50 µg/mL | EC50 (H1N1 A/PR/8/34 (PR8); [5]): > 50 µg/mL | EC90 (H1N1 A/PR/8/34 (PR8); PR8, MDCK cells): > 50 µg/mL

CC(=O)Oc1ccccc1C(=O)Nc1nc(S(=O)(=O)C(C)C)cs1 [Compound 36]
Toxicity LD50 (MTT) (MDCK cells): >50 µg/mL | EC50 (H1N1 A/PR/8/34 (PR8); [5]): 1 µg/mL (≈ 2.71 µM) | EC90 (H1N1 A/PR/8/34 (PR8); PR8, MDCK cells): 8 µg/mL (≈ 21.7 µM) | antiviral activity against PR8, overall rating (H1N1 A/PR/8/34 (PR8)): potent and selective

CC(=O)Oc1ccccc1C(=O)Nc1ncc(S(=O)(=O)c2ccc([N+](=O)[O-])cc2)s1 [Compound 51]
Toxicity LD50 (MTT) (MDCK cells): 30 µg/mL | EC50 (H1N1 A/PR/8/34 (PR8); [5]): 3.5 µg/mL (≈ 7.82 µM) | EC90 (H1N1 A/PR/8/34 (PR8); PR8, MDCK cells): 9 µg/mL (≈ 20.1 µM)

CC(=O)Oc1ccccc1C(=O)Nc1nc(S(=O)(=O)C2CCCCC2)cs1 [Compound 38]
Toxicity LD50 (MTT) (MDCK cells): >50 µg/mL | EC50 (H1N1 A/PR/8/34 (PR8); [5]): 25 µg/mL (≈ 61.2 µM) | EC90 (H1N1 A/PR/8/34 (PR8); PR8, MDCK cells): > 50 µg/mL

CS(=O)(=O)c1cnc(NC(=O)c2ccccc2[O-])s1.[Na+] [Compound 54]
Toxicity LD50 (MTT) (MDCK cells): >50 µg/mL | EC50 (H1N1 A/PR/8/34 (PR8); [5]): 10 µg/mL | EC90 (H1N1 A/PR/8/34 (PR8); PR8, MDCK cells): > 50 µg/mL
